These results are taken from patent US10590456B2, “Ribosomes with tethered subunits” (Northwestern University, priority 2014, dated 2020).

The experiment relates to wild-type ribosomes. The experiment in a line: Antibiotic inhibition of orthogonal sf-gfp translation by wild-type ribosomes in cell-free system. The class given is biochemical, E. coli. As to conditions: pactamycin 100 μM. On the procedure:
Ribosomes (wild-type) or oRibo-T (mixed with wild-type ribosomes) were prepared from SQ171fg cells transformed with pAM552 or poRibo-T1, respectively. An orthogonal sf-gfp gene was PCR amplified from the plasmid pT7oGFP using primers […] (SEQ ID NO: 227) and […] (SEQ ID NO: 228). The transcription-translation reaction was carried out in Δ(ribosome, amino acid, tRNA) PURExpress system as described above. The 7.5 μl reactions were supplemented with 18.75 ng DNA template and 7.5 pmol ribosomes and when needed, clindamycin or pactamycin were added to the reactions to the final concentrations of 50 μM or 100 μM respectively.

For the molecule `CC(=O)c1cccc(N[C@H]2[C@H](N)[C@@](NC(=O)N(C)C)([C@H](C)O)[C@@](C)(O)[C@@]2(O)COC(=O)c2c(C)cccc2O)c1` [Pactamycin], the “inhibition of the activity of wild-type ribosomes in the PURE translation system” value is given as “completely inhibited”.
